The source made the active and inactive calls.
Assays:
cells [1] = format: functional, cell-based; conditions: HEK-CNG
Galanin receptor type 3 = Galanin receptor type 3 (Homo sapiens, UniProt O60755); assay: Fluorescence-based cell-based primary high throughput dose response assay to identify antagonists of the Galanin Receptor 3 (GalR3).; format: functional
[2] = COV434 cell viability loss – plate reader, dry powder, SA7, cytotoxicity control for PAX8 inhibitor project, dose response (AID 743145); format: functional, cell-based
[3] = inhibitors acting on PAX2 in cells – cell-based, plate reader, dry powder samples, selectivity assay for PAX8 inhibitor project, dose response (AID 743048); format: functional;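 note: HEK293 cells carrying a WT1 promoter luciferase reporter driven by expressed Pax2; potency is for inhibition of Pax2 driven reporter signal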
[4] = PAX5 cellular inhibition readout – cell-based, plate reader, dry powder samples, selectivity assay for PAX8 inhibitor project, dose response (AID 743047); format: functional;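 note: HEK293 cells carrying a Pax5 driven CD19 promoter luciferase reporter; potency of inhibitors that lower reporter luminescence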
[5] = COV362 cell viability loss – plate reader, dry powder, SA12, cytotoxicity control for PAX8 inhibitor project, dose response (AID 743144); format: functional, cell-based
[6] = PAX8-dependent cell viability loss – plate reader, dry powder, dose response (AID 743049); format: functional, cell-based
Paired box protein Pax-8 = Paired box protein Pax-8 (Homo sapiens, UniProt Q06710); assay: PAX8 transcriptional activity inhibition in RMG-I – RMG-I cells, luciferase, cherry-pick, dose response (AID 687027); format: functional, cell-based;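 note: luciferase reporter driven by Pax8 target thyroperoxidase promoter measured by SteadyGlo luminescence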
Paired box protein Pax-8, sequence (Q06710 whole entry): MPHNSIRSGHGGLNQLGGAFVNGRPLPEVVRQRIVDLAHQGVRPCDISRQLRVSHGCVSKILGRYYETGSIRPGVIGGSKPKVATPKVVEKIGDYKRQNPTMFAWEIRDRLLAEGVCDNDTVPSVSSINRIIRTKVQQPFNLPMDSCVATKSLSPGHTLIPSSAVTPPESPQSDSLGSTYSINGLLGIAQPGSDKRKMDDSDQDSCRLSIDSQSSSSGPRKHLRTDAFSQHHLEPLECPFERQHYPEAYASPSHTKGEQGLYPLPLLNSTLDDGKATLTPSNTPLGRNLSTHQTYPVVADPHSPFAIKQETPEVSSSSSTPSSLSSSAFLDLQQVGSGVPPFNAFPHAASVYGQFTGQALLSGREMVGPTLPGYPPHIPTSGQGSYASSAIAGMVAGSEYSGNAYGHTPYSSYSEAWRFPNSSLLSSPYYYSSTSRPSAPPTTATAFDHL

[7] = biological target: T1, Small ubiquitin-related modifier 1 (Homo sapiens, UniProt P63165); assay: SUMO1 protein interaction blockers, potency – biochemical, fluorescence polarization, uHTS hits, dose response (AID 624382); format: functional; conditions: read-out: IC50_Mean
T1 sequence (P63165 whole entry): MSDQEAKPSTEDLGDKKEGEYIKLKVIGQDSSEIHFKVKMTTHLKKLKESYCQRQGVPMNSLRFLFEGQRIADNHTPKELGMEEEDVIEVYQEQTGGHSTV

[8] = biological target: T2, Low molecular weight phosphotyrosine protein phosphatase (Homo sapiens, UniProt P24666); format: functional; conditions: read-out: IC50_Mean;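 note: Dose-response confirmation assay measuring inhibition of LMPTP enzyme activity by fluorescence intensity read-out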
T2 sequence (P24666 whole entry): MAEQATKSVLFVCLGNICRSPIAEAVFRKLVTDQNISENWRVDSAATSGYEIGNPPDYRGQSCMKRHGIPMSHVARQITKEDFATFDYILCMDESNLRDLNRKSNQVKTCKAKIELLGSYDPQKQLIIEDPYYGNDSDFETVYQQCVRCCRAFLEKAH

Vero = assay: cells; format: functional; conditions: Chlorocebus sabaeus
[9] = biological target: T1, Small ubiquitin-related modifier 1; assay: SUMO1 protein-protein binding blockers, potency – biochemical, FRET, dose response (AID 624383); format: functional; conditions: read-out: IC50_Mean
[10] = blockers of HIV-1 envelope-mediated cell-cell fusion – cherry-pick, dose response (AID 652057); format: functional, cell-based
[11] = off-target signal loss in HeLa-CEM21 co-culture – HeLa F-luc CTL cells, cherry-picked, counter-screen for HIV-1 Env fusion inhibitor project, dose response (AID 652040); format: functional, cell-based;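 note: potency for signal decrease marking cytotoxic or nonspecific inhibition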
cells [12] = format: functional, cell-based
[13] = biological target: T3, Trace amine-associated receptor 1 (Homo sapiens, UniProt Q96RJ0); assay: Fluorescence-based cell-based high throughput dose response assay to identify agonists of the human trace amine associated receptor 1 (TAAR1).; format: functional
T3 sequence (Q96RJ0 whole entry): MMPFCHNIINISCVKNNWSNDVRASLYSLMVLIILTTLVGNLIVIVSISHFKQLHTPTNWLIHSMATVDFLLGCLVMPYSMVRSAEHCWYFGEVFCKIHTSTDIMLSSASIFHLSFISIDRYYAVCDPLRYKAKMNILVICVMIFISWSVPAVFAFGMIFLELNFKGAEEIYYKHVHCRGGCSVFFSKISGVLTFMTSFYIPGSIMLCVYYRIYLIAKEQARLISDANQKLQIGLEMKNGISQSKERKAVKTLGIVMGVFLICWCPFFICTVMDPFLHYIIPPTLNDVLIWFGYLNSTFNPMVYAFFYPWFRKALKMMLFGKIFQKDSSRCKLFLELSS

[14] = biological target: T3, Trace amine-associated receptor 1; assay: Counterscreen for agonists of the human trace amine associated receptor 1 (hTAAR1): Fluorescence-based cell-based high throughput dose response assay to identify hTAAR1 agonist that also desensitize TAAR1 receptor response.; format: functional
cells [15] = format: functional, cell-based; remark: listed apart in the source
Cytochrome P450 2C9 = Cytochrome P450 2C9 (Homo sapiens, UniProt P11712)
Cytochrome P450 2C9, sequence (P11712 whole entry): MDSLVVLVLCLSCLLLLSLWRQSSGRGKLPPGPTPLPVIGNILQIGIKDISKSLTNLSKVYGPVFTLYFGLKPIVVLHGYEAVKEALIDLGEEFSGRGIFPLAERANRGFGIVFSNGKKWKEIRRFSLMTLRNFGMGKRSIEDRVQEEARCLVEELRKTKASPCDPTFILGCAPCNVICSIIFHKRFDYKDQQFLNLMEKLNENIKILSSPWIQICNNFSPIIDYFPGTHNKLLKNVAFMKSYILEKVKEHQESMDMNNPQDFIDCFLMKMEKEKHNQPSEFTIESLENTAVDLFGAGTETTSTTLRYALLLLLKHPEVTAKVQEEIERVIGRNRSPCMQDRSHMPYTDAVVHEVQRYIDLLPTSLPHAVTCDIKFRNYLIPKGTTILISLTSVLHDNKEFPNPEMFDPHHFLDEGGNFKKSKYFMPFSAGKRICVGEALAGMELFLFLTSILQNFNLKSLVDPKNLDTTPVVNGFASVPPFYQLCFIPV

[16] = biological target: T4, Sentrin-specific protease 8 (Homo sapiens, UniProt Q96LD8); format: functional
T4 sequence (Q96LD8 whole entry): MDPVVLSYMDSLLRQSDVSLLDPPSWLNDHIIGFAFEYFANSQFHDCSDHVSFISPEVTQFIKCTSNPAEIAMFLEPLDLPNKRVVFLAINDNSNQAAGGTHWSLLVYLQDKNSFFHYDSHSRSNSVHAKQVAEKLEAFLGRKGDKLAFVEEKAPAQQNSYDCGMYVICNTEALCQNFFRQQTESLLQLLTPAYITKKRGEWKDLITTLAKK

[17] = biological target: T4, Sentrin-specific protease 8; format: functional; remark: listed apart in the source
[18] = T. cruzi growth inhibition in host cells, dose response, cell-based, plate reader, dry powder, set 2 (AID 652275); format: functional

Galanin receptor type 3, sequence (O60755 whole entry): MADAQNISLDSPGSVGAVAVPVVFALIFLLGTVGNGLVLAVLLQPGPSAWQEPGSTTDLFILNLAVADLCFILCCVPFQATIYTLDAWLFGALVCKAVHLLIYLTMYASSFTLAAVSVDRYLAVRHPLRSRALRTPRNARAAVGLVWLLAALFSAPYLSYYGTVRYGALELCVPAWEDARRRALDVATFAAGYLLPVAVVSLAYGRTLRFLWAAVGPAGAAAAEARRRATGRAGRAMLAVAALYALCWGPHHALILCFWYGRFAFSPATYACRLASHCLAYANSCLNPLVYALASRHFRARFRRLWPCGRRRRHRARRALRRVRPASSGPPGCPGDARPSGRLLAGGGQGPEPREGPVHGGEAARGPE

For `CC(=O)OCC[N+](C)(C)C.[O-][Cl+3]([O-])([O-])[O-]`, which EC50 (cells [1]) is on record?
Its EC50 is > 29.9 µM (inactive).

What about the IC50 (Galanin receptor type 3) of the same molecule?
Its IC50 is 0.618 µM (active).

Which results are given for `C[C@H](CO)N1C[C@H](C)[C@@H](CN(C)Cc2ccc(-c3ccccc3)cc2)Oc2ccc(NS(=O)(=O)c3ccccc3)cc2CC1=O`?
AC50 [2]: 37.2 µM (active); AC50 [3]: 8 µM (active); AC50 [4]: 14.8 µM (active); AC50 [5]: 26.3 µM (active); AC50 [6]: 30.4 µM (active); AC50 (Paired box protein Pax-8): 17.4 µM (active)

Which IC50 [7] does the source give for `O=C(Nc1ccc2oc(=O)ccc2c1)c1ccc(-c2cccc([N+](=O)[O-])c2)o1` here?
Its IC50 is > 66.6 µM (inactive).

What about the IC50 [8] of the same molecule?
The IC50 was 25.5 µM (inactive).

What about the CC50 (Vero) of the same molecule?
Its CC50 is 8.41 µM (active).

What about the IC50 [9] of the same molecule?
The IC50 was 2.43 µM (active).

With `Cc1cccc(/C=N\Nc2cnnc(O)c2Cl)c1` as the molecule, how does the AC50 [10] read?
Its AC50 is 1.06 µM (active).

What about the AC50 [11] of the same molecule?
The AC50 was 0.76 µM (active).

And the EC50 (cells [12])?
The EC50 was > 29.9 µM (inactive).

What about the EC50 [13] of the same molecule?
Its EC50 is 1.28 µM (active).

What about the IC50 [14] of the same molecule?
Its IC50 is 7.33 µM (active).

What about the IC50 (cells [15]) of the same molecule?
Its IC50 is > 29.9 µM (inactive).

And the AC50 (Cytochrome P450 2C9)?
Its AC50 is 28.2 µM (inconclusive).

With `Cc1cc(C(=O)CSc2nc(N)cc(O)n2)c(C)n1-c1ccc(OC(F)F)cc1` as the molecule, how does the EC50 (cells [1]) read?
Its EC50 is > 29.9 µM (inactive).

What about the IC50 (Galanin receptor type 3) of the same molecule?
The IC50 was 2.9 µM (active).

With `CCN(CC)c1ccc(NC2CC(=O)N(CCc3ccc(OC)cc3)C2=O)cc1` (centres undefined) as the molecule, how does the IC50 [16] read?
The IC50 was > 100 µM (inactive).

What about the IC50 [17] of the same molecule?
Its IC50 is 45.2 µM (active).

For `CC(C)N1C[C@@H](CN(C)Cc2ccc(Cl)cc2)Oc2c(NC(=O)c3ccccc3)cccc2C1=O`, which AC50 [18] is on record?
Its AC50 is 1.49 µM (active).

— ChEMBL document CHEMBL1201862, “PubChem BioAssay data set” (2004)
